Reference: patent US12570650B2, “6-substituted pyridazine compounds as SMARCA2 and/or SMARCA4 degraders” (Aurigene Oncology Limited, priority 2020, dated 2026)

Experiments:
Assay type in all cases: cell-based
SK-MEL-5 cells = experiment: Anti proliferative activity, Cell Titer Glo assay, SK-MEL-5; conditions: Homo sapiens, SK-MEL-5, SK-MEL-5 cells, retreatment Day 4, terminated day 8, CellTiter-Glo
Experimental: (§1) Example-P3: Determination of Anti Proliferative Activity of Compounds by Cell Titer Glo®(Promega) Assay
(§2) Cells were seeded into 96-well plates and the plate was incubated in 37 degrees incubator overnight. The next day, compounds were diluted 3-fold to cover 9-point concentration range in DMSO. Intermediate plate dilution was prepared in media followed with compound treatment in cells. Retreatment of cells with compound dilutions was performed on Day 4 and assay was terminated on day 8 for SK-MEL-5 cells using CellTiter-Glo and the plate was kept on orbital shaker for 20 minutes at RT. Assay was terminated on day 6 for RERF-LC-A1 without a compound retreatment. Luminescence signal was recorded on VICTOR^3 instrument. Percent inhibition of proliferation was calculated at each concentration and plotted against the compound concentration. EC50 value was calculated using GraphPad software.

SMARCA4 = biological target: T1, SMARCA4 (Homo sapiens, UniProt P51532); experiment: SMARCA4 degradation in VCaP cells by Western blot; conditions: 16 hours
T1 construct: Determination of SMARCA2 and SMARCA4 Degradation in VCaP Cells by Western Blot; endogenous in cells; host or cells: VCaP (ATCC CRL-2876)
How it was run: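 VCaP cells treated with compounds diluted from DMSO stocks, final DMSO ≤0.3%; equal protein analysed by SDS-PAGE Western blot. Degradation = 100 − (normalized SMARCA4 band in treated/DMSO sample)×100.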

RERF-LC-A1 cell line = experiment: Anti proliferative activity, Cell Titer Glo assay, RERF-LC-A1; conditions: 144 h; RERF-LC-A1 cells, terminated day 6 without retreatment, CellTiter-Glo
Experimental: as §1, §2
Herein the group “++” refers to EC50 (RERF-LC-A1) values lower than 100 nM and “+” refers to EC50 (RERF-LC-A1) values greater than 100 nM.

SMARCA2 = biological target: T2, SMARCA2 (Homo sapiens, UniProt P51531); experiment: SMARCA2 degradation in VCaP cells by Western blot; conditions: 16 hours
T2 construct: Determination of SMARCA2 and SMARCA4 Degradation in VCaP Cells by Western Blot; endogenous in cells; host or cells: VCaP (ATCC CRL-2876)
How it was run: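 VCaP cells were treated with compound for 16 hours, with DMSO at no more than 0.3% final. Lysates were immunoblotted for SMARCA2, using beta-tubulin as loading control. % degradation = 100 − (normalized band intensity treated/normalized band intensity DMSO)×100.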

T1 sequence (P51532 whole entry): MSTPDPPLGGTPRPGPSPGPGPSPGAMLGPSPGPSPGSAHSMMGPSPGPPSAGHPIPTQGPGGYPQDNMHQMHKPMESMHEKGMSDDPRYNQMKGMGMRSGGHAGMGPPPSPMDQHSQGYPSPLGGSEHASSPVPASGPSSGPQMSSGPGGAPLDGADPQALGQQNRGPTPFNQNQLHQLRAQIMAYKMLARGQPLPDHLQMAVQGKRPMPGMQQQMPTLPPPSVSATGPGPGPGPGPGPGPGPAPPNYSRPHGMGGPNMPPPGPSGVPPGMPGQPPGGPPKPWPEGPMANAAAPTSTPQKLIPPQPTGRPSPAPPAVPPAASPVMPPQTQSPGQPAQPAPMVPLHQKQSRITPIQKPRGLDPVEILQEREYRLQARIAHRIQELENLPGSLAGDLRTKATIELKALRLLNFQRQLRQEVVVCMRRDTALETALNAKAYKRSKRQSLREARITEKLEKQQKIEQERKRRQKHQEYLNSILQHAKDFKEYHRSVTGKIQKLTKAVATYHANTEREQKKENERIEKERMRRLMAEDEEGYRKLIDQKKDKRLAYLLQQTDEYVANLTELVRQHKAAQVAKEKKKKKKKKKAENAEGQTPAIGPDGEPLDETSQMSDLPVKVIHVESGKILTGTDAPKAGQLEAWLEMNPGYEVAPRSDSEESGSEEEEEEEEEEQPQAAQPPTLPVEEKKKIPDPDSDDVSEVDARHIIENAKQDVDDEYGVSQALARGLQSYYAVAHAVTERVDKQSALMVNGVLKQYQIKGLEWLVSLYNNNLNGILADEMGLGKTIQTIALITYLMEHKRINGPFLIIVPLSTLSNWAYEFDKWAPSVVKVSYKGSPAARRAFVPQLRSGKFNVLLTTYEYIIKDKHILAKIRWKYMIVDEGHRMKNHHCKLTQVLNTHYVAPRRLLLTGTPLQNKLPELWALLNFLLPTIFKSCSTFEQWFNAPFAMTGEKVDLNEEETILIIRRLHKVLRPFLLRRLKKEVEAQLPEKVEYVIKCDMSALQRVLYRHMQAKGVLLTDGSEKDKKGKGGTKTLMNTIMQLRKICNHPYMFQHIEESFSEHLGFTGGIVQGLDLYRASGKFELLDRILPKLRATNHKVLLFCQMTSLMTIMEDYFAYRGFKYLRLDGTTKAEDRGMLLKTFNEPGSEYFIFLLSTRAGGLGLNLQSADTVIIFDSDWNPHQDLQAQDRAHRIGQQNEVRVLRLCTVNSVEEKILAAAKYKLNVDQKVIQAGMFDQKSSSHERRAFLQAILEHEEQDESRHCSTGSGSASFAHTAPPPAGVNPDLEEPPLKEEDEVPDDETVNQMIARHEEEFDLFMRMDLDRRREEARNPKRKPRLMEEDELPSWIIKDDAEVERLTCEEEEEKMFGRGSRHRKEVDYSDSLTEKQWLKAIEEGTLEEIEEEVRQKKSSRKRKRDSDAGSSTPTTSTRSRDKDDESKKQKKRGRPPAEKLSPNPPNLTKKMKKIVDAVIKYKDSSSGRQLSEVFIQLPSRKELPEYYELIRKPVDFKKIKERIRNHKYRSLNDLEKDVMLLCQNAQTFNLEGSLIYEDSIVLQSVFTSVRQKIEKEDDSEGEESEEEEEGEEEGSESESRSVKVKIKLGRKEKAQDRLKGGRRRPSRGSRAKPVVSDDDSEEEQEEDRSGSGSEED
T2 sequence (P51531 whole entry): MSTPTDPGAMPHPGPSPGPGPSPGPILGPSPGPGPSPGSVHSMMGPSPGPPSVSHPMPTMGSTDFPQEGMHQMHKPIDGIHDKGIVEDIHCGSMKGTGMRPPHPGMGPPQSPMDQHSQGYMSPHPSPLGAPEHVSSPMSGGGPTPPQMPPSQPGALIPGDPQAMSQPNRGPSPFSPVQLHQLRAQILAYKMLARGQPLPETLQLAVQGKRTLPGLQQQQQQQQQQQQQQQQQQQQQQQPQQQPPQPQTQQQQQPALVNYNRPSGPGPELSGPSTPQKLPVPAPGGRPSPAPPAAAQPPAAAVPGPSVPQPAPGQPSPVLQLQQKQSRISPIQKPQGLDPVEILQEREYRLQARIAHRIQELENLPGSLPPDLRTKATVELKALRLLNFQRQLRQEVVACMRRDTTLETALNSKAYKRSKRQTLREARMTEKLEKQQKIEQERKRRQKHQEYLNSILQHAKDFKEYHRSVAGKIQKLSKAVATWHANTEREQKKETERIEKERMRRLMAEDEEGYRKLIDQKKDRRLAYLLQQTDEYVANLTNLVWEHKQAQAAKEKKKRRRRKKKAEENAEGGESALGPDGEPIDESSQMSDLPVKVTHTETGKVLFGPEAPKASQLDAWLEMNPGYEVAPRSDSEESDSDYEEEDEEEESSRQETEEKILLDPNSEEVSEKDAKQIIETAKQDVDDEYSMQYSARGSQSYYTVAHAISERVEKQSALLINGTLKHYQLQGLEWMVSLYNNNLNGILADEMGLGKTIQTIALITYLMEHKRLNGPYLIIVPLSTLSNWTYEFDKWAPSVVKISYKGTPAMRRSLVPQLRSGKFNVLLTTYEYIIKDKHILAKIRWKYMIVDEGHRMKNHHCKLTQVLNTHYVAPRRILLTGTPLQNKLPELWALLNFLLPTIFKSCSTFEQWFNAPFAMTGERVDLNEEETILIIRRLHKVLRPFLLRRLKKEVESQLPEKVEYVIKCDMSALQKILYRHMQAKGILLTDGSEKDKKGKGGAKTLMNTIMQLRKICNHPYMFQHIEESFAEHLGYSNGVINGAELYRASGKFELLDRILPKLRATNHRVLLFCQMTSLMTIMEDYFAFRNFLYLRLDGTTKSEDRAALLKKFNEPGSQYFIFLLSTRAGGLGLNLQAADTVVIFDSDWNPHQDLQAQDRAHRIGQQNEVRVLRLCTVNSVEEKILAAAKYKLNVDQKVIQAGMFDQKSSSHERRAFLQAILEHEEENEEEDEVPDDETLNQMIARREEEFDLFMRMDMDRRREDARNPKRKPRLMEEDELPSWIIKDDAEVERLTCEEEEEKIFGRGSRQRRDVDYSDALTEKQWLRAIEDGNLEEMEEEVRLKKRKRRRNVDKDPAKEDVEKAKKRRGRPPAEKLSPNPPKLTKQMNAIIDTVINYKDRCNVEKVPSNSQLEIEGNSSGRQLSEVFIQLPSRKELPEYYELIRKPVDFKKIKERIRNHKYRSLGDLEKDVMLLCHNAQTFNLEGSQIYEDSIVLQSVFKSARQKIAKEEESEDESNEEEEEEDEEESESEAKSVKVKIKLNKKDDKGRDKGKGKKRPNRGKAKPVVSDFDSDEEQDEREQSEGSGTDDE

EC50 (SK-MEL-5 cells) | Percent degradation (at 100 nM) SMARCA4 (SMARCA4) | Percent degradation (at 100 nM) SMARCA2 (SMARCA2) | SMILES | EC50 (RERF-LC-A1 cell line)
< 250 nM | 0% | 91% | Cc1ncsc1-c1ccc([C@H](C)NC(=O)[C@@H]2C[C@@H](O)CN2C(=O)[C@@H](NC(=O)CN2CCC(c3ccc(-c4cnnc(-c5ccccc5O)c4)cc3)CC2)C(C)(C)C)cc1 [Compound 11, (2S,4R)-4-hydroxy-1-((S)-2-(2-(4-(4-(6-(2-hydroxyphenyl)pyridazin-4-yl)phenyl)piperidin-1-yl)acetamido)-3,3-dimethylbutanoyl)-N-((S)-1-(4-(4-methylthiazol-5-yl)phenyl)ethyl)pyrrolidine-2-carboxamide] | < 100 nM
> 500 nM | 0% | 75% | Cc1ncsc1-c1ccc(CNC(=O)[C@@H]2C[C@@H](O)CN2C(=O)[C@@H](NC(=O)CN2CCC(c3ccc(-c4cnnc(-c5ccccc5O)c4)cc3)CC2)C(C)(C)C)cc1 [Compound 12, (2S,4R)-4-hydroxy-1-((S)-2-(2-(4-(4-(6-(2-hydroxyphenyl)pyridazin-4-yl)phenyl)piperidin-1-yl)acetamido)-3,3-dimethylbutanoyl)-N-(4-(4-methylthiazol-5-yl)benzyl)pyrrolidine-2-carboxamide] | < 100 nM

SMILES | EC50 (SK-MEL-5 cells) | Percent degradation (at 100 nM) SMARCA4 (SMARCA4) | Percent degradation (at 100 nM) SMARCA2 (SMARCA2) | EC50 (RERF-LC-A1 cell line)
Cc1ncsc1-c1ccc([C@H](C)NC(=O)[C@@H]2C[C@@H](O)CN2C(=O)[C@@H](NC(=O)CN2CC3CCC(C2)N3c2ccc(-c3cnnc(-c4ccccc4O)c3)cc2)C(C)(C)C)cc1 [Compound 24, (2S,4R)-4-hydroxy-1-((2S)-2-(2-(8-(4-(6-(2-hydroxyphenyl)pyridazin-4-yl)phenyl)-3,8-diazabicyclo[3.2.1]octan-3-yl)acetamido)-3,3-dimethylbutanoyl)-N-((S)-1-(4-(4-methylthiazol-5-yl)phenyl)ethyl)pyrrolidine-2-carboxamide] | < 250 nM | 15% | 96% | < 100 nM
